Converted amounts (≈) assume the structure as drawn.
Legend:
[1] = tested on: intracellular T. cruzi X10/7 A1 amastigotes; assay: Intracellular T. cruzi assay; assay type: cell-based, Trypanosoma cruzi; details: for EC50: Trypanosoma cruzi, read-out: T. cruzi (pEC50) (converted)
Procedure: 1.1 Intracellular T. cruzi assay: Potency against intracellular T. cruzi X10/7 A1 amastigotes was determined as described previously with as sole modification that the compound treatment duration was increased from 72h to 96h.

[2] = Aqueous (kinetic) solubility by CAD; assay type: physicochemical; details: kinetic solubility measured by CAD
Procedure: 2.1 Aqueous solubility: This assay was conducted as previously described in [4].

[3] = Intrinsic clearance in mouse liver microsomes; assay type: in vitro ADME; details: for Mouse CLi: mouse liver microsomal intrinsic clearance
Procedure: 2.2 Intrinsic clearance: This assay was conducted as previously described in [5].

[4] = ChromLogD pH7.4 (chromatographic hydrophobicity index); assay type: physicochemical; details: pH 7.4, CHIpH7.4 × 0.0857–2; for chromatographic logD: read-out: ChromlogDpH7.4
[5] = potency against intracellular T. cruzi amastigotes, at least three independent replicates, standard deviations ≤0.2

Row | Molecule | T. cruzi (pEC50) [1, 5] | solubility [2] | Mouse CLi [3] | ChromlogDpH7.4 [4] | EC50 [1, 5] | chromatographic logD [4] | Activity in the intracellular T. cruzi assay (in words) ([1]; purified compound) | Clearance (mouse liver microsomal) [3]
1 | 4-methoxy-N-(4-((4-(1-methyl-4-oxo-1,4-dihydroquinoline-2-carbonyl)piperazin-1-yl)methyl)phenyl)benzenesulfonamide [Compound 27] | 5.4 | 29 µM | >50 mL/min/g | 5.4 |  |  |  | 
2 | Cc1ccc(S(=O)(=O)Nc2ccc(CN(C)C3CCN(C(=O)c4cccc(Cl)c4)C3)cc2)cc1 (stereo in doubt) [Compound 34, (S)-N-(4-(((1-(3-chlorobenzoyl)pyrrolidin-3-yl)(methyl)amino)methyl)phenyl)-4-methylbenzenesulfonamide] |  | 28 µM (≈ 13.9 µg/mL) | >50 mL/min/g |  | 10 µM | 5.7 |  | 
3 | CS(=O)(=O)Nc1ccc(CN2CCN(C(=O)c3cccc(Cl)c3)CC2)cc1 [Compound 2, N-(4-((4-(3-chlorobenzoyl)piperazin-1-yl)methyl)phenyl)methanesulfonamide] |  | ≥ 470 µM | 2.6 mL/min/g |  | > 50.1 µM | 4 | complete loss of potency | 
4 | O=C(c1cccc(Cl)c1)N1CCN(Cc2ccc(NS(=O)(=O)c3ccccc3)cc2)CC1 [Compound 3, N-(4-((4-(3-chlorobenzoyl)piperazin-1-yl)methyl)phenyl)benzenesulfonamide] |  | 67 µM (≈ 31.5 µg/mL) | >50 mL/min/g |  | 1.58 µM | 5.5 |  | 
5 | COc1ccc(S(=O)(=O)Nc2ccc(CN3CCN(C(=O)c4cccc(Cl)c4)CC3)cc2)cc1 [Compound 4, N-(4-((4-(3-chlorobenzoyl)piperazin-1-yl)methyl)phenyl)-4-methoxybenzenesulfonamide] |  | 43 µM (≈ 21.5 µg/mL) | >50 mL/min/g |  | 0.501 µM | 5.6 |  | > 50 mL/min/g
6 | N#Cc1ccc(S(=O)(=O)Nc2ccc(CN3CCN(C(=O)c4cccc(Cl)c4)CC3)cc2)cc1 [Compound 5, N-(4-((4-(3-chlorobenzoyl)piperazin-1-yl)methyl)phenyl)-4-cyanobenzenesulfonamide] |  | 54 µM (≈ 26.7 µg/mL) | >50 mL/min/g |  | 7.94 µM | 5.2 |  | 
7 | O=C(c1cccc(Cl)c1)N1CCN(Cc2ccc(NS(=O)(=O)c3ccc4c(c3)OCO4)cc2)CC1 [Compound 6, N-(4-((4-(3-chlorobenzoyl)piperazin-1-yl)methyl)phenyl)benzo[d][1,3]dioxole-5-sulfonamide] |  | 33 µM (≈ 17 µg/mL) | >50 mL/min/g |  | 0.158 µM | 5.2 |  | 
8 | O=C(c1cccc(Cl)c1)N1CCN(Cc2ccc(NS(=O)(=O)CC3CCCO3)cc2)CC1 (stereo not drawn) [Compound 7, N-(4-((4-(3-chlorobenzoyl)piperazin-1-yl)methyl)phenyl)-1-(tetrahydrofuran-2-yl)methanesulfonamide] |  | 486 µM (≈ 232 µg/mL) | 44 mL/min/g |  | 15.8 µM | 4.6 |  | 
9 | O=C(c1cccc(Cl)c1)N1CCN(Cc2ccc(N3CCCCS3(=O)=O)cc2)CC1 [Compound 8, (3-chlorophenyl)(4-(4-(1,1-dioxido-1,2-thiazinan-2-yl)benzyl)piperazin-1-yl)methanone] |  | ≥ 402 µM | 21 mL/min/g |  | 25.1 µM | 5.1 |  | 
10 | CN1CCN(S(=O)(=O)Nc2ccc(CN3CCN(C(=O)c4cccc(Cl)c4)CC3)cc2)CC1 [Compound 9, N-(4-((4-(3-chlorobenzoyl)piperazin-1-yl)methyl)phenyl)-4-methylpiperazine-1-sulfonamide] |  | ≥ 430 µM | 32 mL/min/g |  | 15.8 µM | 4.1 |  | 
11 | COc1ccc(S(=O)(=O)Nc2ccc(CN3CCN(C(=O)c4cccc(C)c4)CC3)cc2)cc1 [Compound 12] |  | 64 µM (≈ 30.7 µg/mL) |  |  | 1 µM | 5.1 |  | 

Reference: PMC11458808, “Identification and development of a series of disubstituted piperazines for the treatment of Chagas disease” (European Journal of Medicinal Chemistry, 2022)
